Where two headings read alike, the source gives them in different places.
Legend:
[1] = Concentration of Example 4 in plasma, tumor tissue and brain tissue (NCI-N87 model, day 21); type: in vivo, BALB/c nude mice; details: BALB/c nude, mouse, 100 mg/kg; for concentration at 0.5 h: day 21, 0.5 h after last administration; for concentration at 1 h: day 21, 1 h after last administration; for concentration at 2 h: day 21, 2 h after last administration
Experimental: On day 21, the whole blood, tumor tissue, and brain tissue of two mice were collected 0.5 hour, 1 hour, and 2 hours after the last administration. The whole blood was centrifuged to prepare plasma, and the tumor tissue and brain tissue were homogenized to prepare tissue homogenate, and the drug concentration in plasma and tissue homogenate was analyzed by the LC-MS/MS method.

CYP3A4 = CYP3A4 (Homo sapiens (Human), UniProt P08684); experiment: Inhibition of human liver microsomal cytochrome P450 isoenzyme CYP3A4; type: in vitro ADME; details: human liver microsomes
Sequence of CYP3A4 (P08684 whole entry): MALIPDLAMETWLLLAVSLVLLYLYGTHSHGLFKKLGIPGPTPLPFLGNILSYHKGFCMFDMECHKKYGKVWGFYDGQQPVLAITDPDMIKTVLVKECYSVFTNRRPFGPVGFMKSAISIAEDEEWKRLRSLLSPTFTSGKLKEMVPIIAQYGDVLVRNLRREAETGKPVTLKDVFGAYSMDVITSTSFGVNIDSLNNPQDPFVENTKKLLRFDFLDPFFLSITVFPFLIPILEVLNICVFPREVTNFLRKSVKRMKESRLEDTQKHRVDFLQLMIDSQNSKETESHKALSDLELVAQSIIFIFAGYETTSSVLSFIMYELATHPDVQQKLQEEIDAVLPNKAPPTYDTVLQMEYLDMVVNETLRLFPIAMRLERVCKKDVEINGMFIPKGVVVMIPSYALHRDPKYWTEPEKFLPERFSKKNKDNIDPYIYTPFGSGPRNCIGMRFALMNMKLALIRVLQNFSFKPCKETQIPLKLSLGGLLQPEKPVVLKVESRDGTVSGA
Experimental: The object of this study was to evaluate the effect of Example 4 on the activities of five isoenzymes (CYP1A2, CYP2C9, CYP2C19, CYP2D6 and CYP3A4) of human liver microsomal cytochrome P450 (CYP) using an in vitro test system. The specific probe substrates of CYP450 isozymes were incubated with human liver microsomes and different concentrations of Example 4, and reduced nicotinamide adenine dinucleotide phosphate (NADPH) was added to initiate the reaction. After the reaction was completed, the samples were treated, and liquid chromatography tandem mass spectrometry (LC/MS/MS) was used to detect the metabolites produced by specific substrates.

[2] = Pharmacokinetic properties in mice; type: in vivo; details: female, Balb/c; for clearance / Vd / bioavailability: plasma, mouse; for Vd: read-out: Vdss; for bioavailability: read-out: F (bioavailability); for AUC(0-inf) / AUC(0-t) / half-life / Cmax: mouse plasma
Experimental: The tested compound was dissolved in 10% DMSO/45% PEG400/45% water, vortexed and sonicated to prepare a clear solution with the corresponding concentration, which was filtered through a millipore filter for use. 18 to 20 grams of Balb/c female mice were selected, and the candidate compound solution was administered intravenously at a dose of 1 or 2 mg/kg. The tested compound was dissolved in 10% NMP/10% polyethylene glycol-15-hydroxystearate/80% water, vortexed and sonicated to prepare a clear solution with the corresponding concentration, which was filtered through a millipore filter for use. 18 to 20 grams of Balb/c female mice were selected, and the candidate compound solution was administered orally at a dose of 2 or 10 mg/kg. The whole-blood for a certain period of time was collected to prepare plasma. The drug concentration was analyzed by the LC-MS/MS method, and the pharmacokinetic parameters were calculated by the Phoenix WinNonlin software (Pharsight, USA).

[3] = brain tissue, read-out: Drug concentration, brain tissue
[4] = plasma, read-out: Drug concentration, plasma
[5] = tumor tissue, read-out: Drug concentration, tumor tissue

Cc1cc(Nc2ncnn3ccc(CN4CCC(N)CC4)c23)ccc1Oc1ccn2ncnc2c1 [Example 4]
concentration at 0.5 h [1, 3]: 0.538 µM | concentration at 1 h [1, 3]: 0.631 µM | concentration at 2 h [1, 3]: 1.01 µM | concentration at 0.5 h [1, 4]: 8.6 µM | concentration at 1 h [1, 4]: 7.58 µM | concentration at 2 h [1, 4]: 12.8 µM | concentration at 0.5 h [1, 5]: 9.45 µM | concentration at 1 h [1, 5]: 11.2 µM | concentration at 2 h [1, 5]: 21.4 µM | IC50 (CYP3A4): 32.4 µM | clearance ([2]; IV 1 mg/kg): 19.2 mL/min/kg | Vd ([2]; IV 1 mg/kg): 2.3 L/kg | clearance ([2]; IV 2 mg/kg): 33 mL/min/kg | Vd ([2]; IV 2 mg/kg): 2.81 L/kg | bioavailability ([2]; PO 2 mg/kg): 22.7% | bioavailability ([2]; PO 10 mg/kg): 40.2% | AUC(0-inf) ([2]; IV 1 mg/kg): 1.57 µM·h | AUC(0-t) ([2]; IV 1 mg/kg): 1.52 µM·h | half-life ([2]; IV 1 mg/kg): 1.65 h | AUC(0-inf) ([2]; IV 2 mg/kg): 2.15 µM·h | AUC(0-t) ([2]; IV 2 mg/kg): 2.13 µM·h | half-life ([2]; IV 2 mg/kg): 1.34 h | AUC(0-inf) ([2]; PO 2 mg/kg): 0.95 µM·h | AUC(0-t) ([2]; PO 2 mg/kg): 0.928 µM·h | Cmax ([2]; PO 2 mg/kg): 0.306 µM | half-life ([2]; PO 2 mg/kg): 1.37 h | AUC(0-inf) ([2]; PO 10 mg/kg): 4.33 µM·h | AUC(0-t) ([2]; PO 10 mg/kg): 4.28 µM·h | Cmax ([2]; PO 10 mg/kg): 1.25 µM | half-life ([2]; PO 10 mg/kg): 1.08 h
